Key:
[1] = tested on: patients with negative symptoms of schizophrenia; test: Study #2 (MIN-101C07): Calgary Depression Scale for Schizophrenia; assay type: in vivo, human; conditions: Week 12 DB, ITT
From the text: (§1) Study #2 (also referred to as “MIN101C07”) was a Phase 3, randomized, DB, placebo-controlled, parallel-group 12-week study to evaluate the efficacy and safety of Roluperidone in patients ≥18 years to ≤55 years with negative symptoms of schizophrenia, followed by a 40-week OL extension. The study consisted of a pretreatment screening period of up to 28 days (including an antipsychotic medication washout period), a 12-week, DB, placebo-controlled period, and a 40-week OL period. Eligible patients (with moderate to severe negative symptoms of schizophrenia and stable positive symptoms but without severe symptoms of suspiciousness, agitation, hostility, uncooperativeness, or poor impulse control) were randomized 1:1:1 to receive Roluperidone 32 mg QD, Roluperidone 64 mg QD (GR01/B formulation, see U.S. Pat. No. 11,464,744), or placebo, orally, for 12 weeks. […] During the 40-week OL treatment extension, patients who were initially randomized to Roluperidone 32 mg or 64 mg continued treatment with the same dose, while patients who were initially randomized to placebo crossed over to Roluperidone 32 mg or 64 mg in a 1:1 ratio.

[2] = tested on: cholinergic receptors; conditions: background statement; cited from earlier work
[3] = tested on: patients with negative symptoms of schizophrenia; test: Study #2 (MIN-101C07): rate of relapse and time to relapse; assay type: in vivo, human; conditions: for Patients who experienced relapse (%) / Patients who experienced relapse (number) / Days to relapse (Kaplan-Meier estimates), Mean / Days to relapse (Kaplan-Meier estimates), Median: ITT, MIN-101C07
Method: “Time to relapse” in the DB period is defined as the number of days from Day 1 to the date of early trial termination due to relapse. […] Treatment differences in time to relapse in the DB period were analyzed using a Cox-regression model with treatment group and Baseline PANSS total score as covariates. For the analysis of the OL period, this analysis was repeated to analyze treatment differences in time to relapse in the study. For the OL period analysis, patients who were not observed to relapse in the study were censored on the date on which they ended the study. Kaplan-Meier plots of time to relapse in the DB period, OL period, and in the study were generated.
In some embodiments, for any of the methods disclosed herein, a relapse refers to a patient who is terminated early during treatment (or a study trial) due to worsening of psychosis or an adverse event or generalized symptom in Table 1.
as §1

[4] = tested on: patients with negative symptoms of schizophrenia; test: Study #1 (MIN-101C03): Brief Assessment of Cognition in Schizophrenia; assay type: in vivo, human; design: Change from Baseline LS Mean: Brief Assessment of Cognition in Schizophrenia Total Score / Change from Baseline LS Mean: Brief Assessment of Cognition in Schizophrenia Total Verbal Fluency: unit not given here; conditions: Week 12 DB, ITT
From the text: (§2) Phase 2b Study #1 (also referred to herein as “MIN-101C03”) was a Phase 2b, double-blind (“DB”), placebo-controlled, randomized, multicenter 12-week study to evaluate the efficacy, safety, and tolerability of Roluperidone in patients ≥18 years to ≤60 years with negative symptoms of schizophrenia, followed by a 24-week open-label (“OL”) extension. The primary objective of the study was to evaluate the efficacy of Roluperidone compared to placebo in improving the negative symptoms of schizophrenia as measured by the change from Baseline in the PANSS negative factor score of the PSM (“PANSS PSM”) over 12 weeks of treatment.
(§3) The study consisted of a pretreatment screening period of up to 28 days (including washout), a 12-week, DB, placebo-controlled period, and a 24-week OL period. Eligible patients (who were symptomatically stable for at least 3 months and had scores of at least 20 on the PANSS negative subscale score) were randomized in a 1:1:1 ratio to receive oral Roluperidone (a modified-release, “MR”, formulation) 32 mg QD, Roluperidone 64 mg QD, or placebo for 12 weeks. […] During the 24-week, OL treatment extension period, patients who were initially randomized to Roluperidone 32 mg or 64 mg continued on the same dose, while patients who were initially randomized to placebo crossed over to Roluperidone 32 mg or 64 mg in a 1:1 ratio.

[5] = tested on: patients with negative symptoms of schizophrenia; test: Study #2 (MIN-101C07): safety and tolerability (TEAEs, QT); assay type: in vivo, human; conditions: for Incidence of TEAEs: DB period
From the text: as §1
The incidence of TEAEs was slightly higher in the Roluperidone groups than in the placebo group during the DB period (42% in the 32 mg Roluperidone group, 37% in the 64 mg Roluperidone group, and 33% in the placebo group). The majority of TEAEs reported were in the System Organ Class (SOC) psychiatric disorders. The most commonly reported TEAEs were insomnia, schizophrenia, anxiety, agitation, and headache. […] In total, 6 patients met stopping criteria due to QT prolongations, and 4 of these 6 patients were discontinued from the study due to such prolongations. The remaining 2 patients were discontinued for other reasons prior to confirming their QT prolongations.

[6] = tested on: patients with negative symptoms of schizophrenia; test: Study #1 (MIN-101C03): Calgary Depression Scale for Schizophrenia; assay type: in vivo, human; conditions: Week 12 DB, ITT
From the text: as §2, §3

[7] = Placebo in DB to 32 mg in OL (N = 59), OL period
[8] = Roluperidone Total 32+64 mg (N = 341), DB period
[9] = Roluperidone Total 32+64 mg, DB period
[10] = Roluperidone throughout, Total (N = 211), OL period

With “1H-Isoindol-1-one,2-[ [1-[2-(4-fluorophenyl)-2-oxoethyl]-4-piperidinyl]methyl]-2,3-dihydro-, hydrochloride, hydrate (1:1:2) [Roluperidone]” the “Change from Baseline LS Mean: Calgary Depression Scale for Schizophrenia” value (from here on “Change from Baseline LS Mean … for Schizophrenia”) ([1]; 32 mg QD) was −0.2, the “Effect Size (Cohen's d) vs Placebo: Calgary Depression Scale for Schizophrenia” value ([1]; 32 mg QD) was 0.21 and the “Change from Baseline LS Mean … for Schizophrenia” value ([1]; 64 mg QD) was −0.1. For the same substance, the “Effect Size (Cohen's d) vs Placebo: Calgary Depression Scale for Schizophrenia” value ([1]; 64 mg QD) was 0.14, the Affinity [2] was “very low or no affinity” and the “Patients who experienced relapse (%)” value ([3]; 32 mg (N = 170), DB period) was 11%. The “Patients who experienced relapse (number)” value ([3]; 32 mg (N = 170), DB period) was 18, the “Patients who experienced relapse (number)” value ([3]; 32 mg throughout the study (N = 107), OL period) was 9 and the “Days to relapse (Kaplan-Meier estimates), Mean” value (“Days to relapse … Mean” below) ([3]; 32 mg throughout the study, OL period) was 232.4 days. For the same substance, the “Days to relapse … Mean” value ([3]; 32 mg, DB period) was 124.9 days, the “Days to relapse (Kaplan-Meier estimates), Median” value ([3]; 32 mg, DB period) was 137.0 days and the “Patients who experienced relapse (%)” value ([3]; 64 mg (N = 171), DB period) was 5%. For the same substance, the “Patients who experienced relapse (number)” value ([3]; 64 mg (N = 171), DB period) was 9, the “Patients who experienced relapse (number)” value ([3]; 64 mg throughout the study (N = 104), OL period) was 10 and the “Days to relapse … Mean” value ([3]; 64 mg throughout the study, OL period) was 186.7 days. The “Days to relapse … Mean” value ([3]; 64 mg, DB period) was 82.1 days, the “Patients who experienced relapse (%)” value ([3]; Overall (N = 333), OL period) was “(8%)” and the “Patients who experienced relapse (number)” value ([3]; Overall (N = 333), OL period) was 25. For the same substance, the “Days to relapse … Mean” value ([3]; Overall, OL period) was 254.1 days, the “Patients who experienced relapse (%)” value [3, 7] was “(10%)” and the “Patients who experienced relapse (number)” value [3, 7] was 6. The “Days to relapse … Mean” value ([3]; Placebo in DB to 32 mg in OL, OL period) was 253.6 days, the “Patients who experienced relapse (number)” value ([3]; Placebo in DB to 64 mg in OL (N = 63), OL period) was 0 and the “Patients who experienced relapse (number)” value ([3]; Placebo in DB to Roluperidone in OL, Total (N = 122), OL period) was 6. For the same substance, the “Days to relapse … Mean” value ([3]; Placebo in DB to Roluperidone in OL, Total, OL period) was 260.4 days, the “Patients who experienced relapse (%)” value [3, 8] was 8% and the “Patients who experienced relapse (number)” value [3, 8] was 27. The “Days to relapse … Mean” value [3, 9] was 127.8 days, the “Days to relapse (Kaplan-Meier estimates), Median” value [3, 9] was 137.0 days and the “Patients who experienced relapse (%)” value [3, 10] was “(9%)”. For the same substance, the “Patients who experienced relapse (number)” value [3, 10] was 19, the “Days to relapse … Mean” value ([3]; Roluperidone throughout, Total, OL period) was 230.9 days and the “Relapse by study phase” value ([3]; Study #2 (n = 513), all subjects, Double-blind (12-weeks)) was 6.8%. The “Relapse overall (discontinued because of positive symptoms worsening)” value ([3]; Study #2 (n = 513), Overall (over 52 weeks)) was 11.7%, the “Relapse by study phase” value ([3]; Study #2, Open-label (over 40 weeks)) was 7.5% and the “Change from Baseline LS Mean: Brief Assessment of Cognition in Schizophrenia Total Score” value ([4]; 32 mg QD) was 23.8. For the same substance, the “Change from Baseline LS Mean: Brief Assessment of Cognition in Schizophrenia Total Verbal Fluency” value ([4]; 32 mg QD) was 5.76, the “Effect Size vs Placebo: Brief Assessment of Cognition in Schizophrenia Total Score” value ([4]; 32 mg QD) was 0.43 and the “Effect Size vs Placebo: Total Verbal Fluency” value ([4]; 32 mg QD) was 0.51. The “Change from Baseline LS Mean: Brief Assessment of Cognition in Schizophrenia Total Score” value ([4]; 64 mg QD) was 14.9, the “Change from Baseline LS Mean: Brief Assessment of Cognition in Schizophrenia Total Verbal Fluency” value ([4]; 64 mg QD) was 4.37 and the “Effect Size vs Placebo: Brief Assessment of Cognition in Schizophrenia Total Score” value ([4]; 64 mg QD) was 0.12. For the same substance, the “Effect Size vs Placebo: Total Verbal Fluency” value ([4]; 64 mg QD) was 0.36, the “Change in safety laboratory parameters, including prolactin” value [5] was “no significant change” and the “Change in vital signs, including weight and waist circumference” value [5] was “no significant change”. For the same substance, the “Incidence of TEAEs” value ([5]; 32 mg) was 42%, the “Incidence of TEAEs” value ([5]; 64 mg) was 37% and the Tolerability ([5]; 32 and 64 mg) was “generally well tolerated”. For the same substance, the “Patients who met stopping criteria due to QT prolongations” value ([5]; in total) was 6 patients, the QT prolongation ([5]; majority of clinically significant prolongations with 64 mg) was “Dose-related QT prolongation was observed” and the “Patients discontinued from the study due to QT prolongations” value ([5]; of the 6 meeting stopping criteria) was 4 patients. The “Change from Baseline LS Mean … for Schizophrenia” value ([6]; 32 mg QD) was −0.37, the “Effect Size vs Placebo: Calgary Depression Scale for Schizophrenia” value ([6]; 32 mg QD) was 0.25 and the “Change from Baseline LS Mean … for Schizophrenia” value ([6]; 64 mg QD) was −0.71. The “Effect Size vs Placebo: Calgary Depression Scale for Schizophrenia” value ([6]; 64 mg QD) was 0.46.

From US20230255953A1, “USE OF ROLUPERIDONE IN PREVENTING RELAPSE IN SCHIZOPHRENIA PATIENTS” (Minerva Neurosciences, Inc., priority 2022, published 2023)
